Laboratory results from ChEMBL document CHEMBL1671662, “In vitro activities of telavancin and six comparator agents against anaerobic bacterial isolates” (2009).
Converted amounts (≈) assume the structure as drawn.

Assays:
Type in all cases: functional
[1] = tested on: Peptoniphilus asaccharolyticus; assay: Antibacterial activity against Peptoniphilus asaccharolyticus by CLSI M11-A6 agar dilution method
Actinomyces naeslundii = assay: Antibacterial activity against Actinomyces naeslundii by CLSI M11-A6 agar dilution method
[2] = tested on: Coprobacillus cateniformis; assay: Antibacterial activity against Coprobacillus cateniformis by CLSI M11-A6 agar dilution method
Prevotella intermedia = assay: Antibacterial activity against Prevotella intermedia by CLSI M11-A6 agar dilution method
Finegoldia magna = assay: Antibacterial activity against Finegoldia magna by CLSI M11-A6 agar dilution method
Bifidobacterium longum = assay: Antibacterial activity against Bifidobacterium longum by CLSI M11-A6 agar dilution method
[3] = tested on: Enterocloster clostridioformis; assay: Antibacterial activity against Clostridium clostridioforme by CLSI M11-A6 agar dilution method
Phocaeicola vulgatus = assay: Antibacterial activity against Bacteroides vulgatus by CLSI M11-A6 agar dilution method
Bifidobacterium breve = assay: Antibacterial activity against Bifidobacterium breve by CLSI M11-A6 agar dilution method
Anaerococcus tetradius = assay: Antibacterial activity against Anaerococcus tetradius by CLSI M11-A6 agar dilution method
Clostridium hathewayi = assay: Antibacterial activity against Clostridium hathewayi by CLSI M11-A6 agar dilution method; settings: Hungatella hathewayi
Ruminococcus gnavus = assay: Antibacterial activity against Ruminococcus gnavus by CLSI M11-A6 agar dilution method; settings: Mediterraneibacter gnavus
Clostridium disporicum = assay: Antibacterial activity against Clostridium disporicum by CLSI M11-A6 agar dilution method
Clostridium bolteae = assay: Antibacterial activity against Clostridium bolteae by CLSI M11-A6 agar dilution method; settings: Enterocloster bolteae
[4] = tested on: Propionibacterium propionicum; assay: Antibacterial activity against Propionibacterium propionicus by CLSI M11-A6 agar dilution method; settings: Arachnia propionica
[5] = tested on: Clostridium sporosphaeroides; assay: Antibacterial activity against Clostridium sporosphaeroides by CLSI M11-A6 agar dilution method; settings: Faecalispora sporosphaeroides
Prevotella disiens = assay: Antibacterial activity against Prevotella P disiens by CLSI M11-A6 agar dilution method
Ruminococcus torques = assay: Antibacterial activity against Ruminococcus torques by CLSI M11-A6 agar dilution method; settings: Mediterraneibacter torques
Parabacteroides merdae = assay: Antibacterial activity against Parabacteroides merdae by CLSI M11-A6 agar dilution method
[6] = tested on: Streptococcus constellatus; assay: Antibacterial activity against Streptococcus constellatus by CLSI M11-A6 agar dilution method
Prevotella denticola = assay: Antibacterial activity against Prevotella P denticola by CLSI M11-A6 agar dilution method
Prevotella oris = assay: Antibacterial activity against Prevotella oris by CLSI M11-A6 agar dilution method; settings: Segatella oris
Clostridium bartlettii = assay: Antibacterial activity against Clostridium bartlettii by CLSI M11-A6 agar dilution method; settings: Intestinibacter bartlettii
Clostridium glycolicum = assay: Antibacterial activity against Clostridium glycolicum by CLSI M11-A6 agar dilution method; settings: Terrisporobacter glycolicus
[7] = tested on: Peptostreptococcus anaerobius; assay: Antibacterial activity against Peptostreptococcus anaerobius by CLSI M11-A6 agar dilution method
[8] = tested on: Sutterella wadsworthensis; assay: Antibacterial activity against Sutterella wadsworthensis by CLSI M11-A6 agar dilution method
Bacteroides fragilis = assay: Antibacterial activity against Bacteroides fragilis by CLSI M11-A6 agar dilution method
Ruminococcus albus = assay: Antibacterial activity against Ruminococcus albus by CLSI M11-A6 agar dilution method; settings: Hominimerdicola alba
Ruminococcus lactaris = assay: Antibacterial activity against Ruminococcus lactaris by CLSI M11-A6 agar dilution method
[9] = tested on: Paraclostridium bifermentans; assay: Antibacterial activity against Clostridium bifermentans by CLSI M11-A6 agar dilution method
Prevotella bivia = assay: Antibacterial activity against Prevotella bivia by CLSI M11-A6 agar dilution method
[10] = tested on: Bifidobacterium adolescentis; assay: Antibacterial activity against Bifidobacterium adolescentis by CLSI M11-A6 agar dilution method
[11] = tested on: Bifidobacterium pseudolongum; assay: Antibacterial activity against Bifidobacterium pseudolongum by CLSI M11-A6 agar dilution method
[12] = tested on: Catenibacterium mitsuokai; assay: Antibacterial activity against Catenibacterium mitsuokai by CLSI M11-A6 agar dilution method
Odoribacter splanchnicus = assay: Antibacterial activity against Bacteroides splanchnicus by CLSI M11-A6 agar dilution method
[13] = tested on: Parabacteroides distasonis; assay: Antibacterial activity against Parabacteroides distasonis by CLSI M11-A6 agar dilution method
Clostridium tertium = assay: Antibacterial activity against Clostridium tertium by CLSI M11-A6 agar dilution method
[14] = tested on: Streptococcus intermedius; assay: Antibacterial activity against Streptococcus intermedius by CLSI M11-A6 agar dilution method
Coriobacterium = assay: Antibacterial activity against […] by CLSI M11-A6 agar dilution method
Prevotella buccae = assay: Antibacterial activity against Prevotella buccae by CLSI M11-A6 agar dilution method; settings: Segatella buccae
[15] = tested on: Clostridium paraputrificum; assay: Antibacterial activity against Clostridium paraputrificum by CLSI M11-A6 agar dilution method
[16] = tested on: Ruminococcus flavefaciens; assay: Antibacterial activity against Ruminococcus flavefaciens by CLSI M11-A6 agar dilution method
Parvimonas micra = assay: Antibacterial activity against Peptostreptococcus micros by CLSI M11-A6 agar dilution method

For `CN[C@H](CC(C)C)C(=O)N[C@H]1C(=O)N[C@@H](CC(N)=O)C(=O)N[C@H]2C(=O)N[C@H]3C(=O)N[C@H](C(=O)N[C@H](C(=O)O)c4cc(O)cc(O)c4-c4cc3ccc4O)[C@H](O)c3ccc(c(Cl)c3)Oc3cc2cc(c3O[C@@H]2O[C@H](CO)[C@@H](O)[C@H](O)[C@H]2O[C@H]2C[C@](C)(N)[C@H](O)[C@H](C)O2)Oc2ccc(cc2Cl)[C@H]1O` [VANCOMYCIN], the MIC50 [1] was 0.5 µg/mL (≈ 0.345 µM), the MIC90 [1] was 1 µg/mL (≈ 0.69 µM) and the MIC50 (Actinomyces naeslundii) was 0.5 µg/mL (≈ 0.345 µM). The MIC90 (Actinomyces naeslundii) was 4 µg/mL (≈ 2.76 µM), the MIC50 [2] was 0.5 µg/mL (≈ 0.345 µM) and the MIC90 [2] was 4 µg/mL (≈ 2.76 µM). It also gave an MIC50 (Prevotella intermedia) of 32 µg/mL (≈ 22.1 µM), an MIC90 (Prevotella intermedia) of over 128 µg/mL and an MIC50 (Finegoldia magna) of 0.5 µg/mL (≈ 0.345 µM). For the same molecule, the MIC90 (Finegoldia magna) was 1 µg/mL (≈ 0.69 µM), the MIC50 (Bifidobacterium longum) was 0.5 µg/mL (≈ 0.345 µM) and the MIC90 (Bifidobacterium longum) was 4 µg/mL (≈ 2.76 µM). It also gave an MIC50 [3] of 2 µg/mL (≈ 1.38 µM), an MIC90 [3] of 2 µg/mL (≈ 1.38 µM) and an MIC50 (Phocaeicola vulgatus) of 64 µg/mL (≈ 44.2 µM). It also gave an MIC90 (Phocaeicola vulgatus) of 128 µg/mL (≈ 88.3 µM), an MIC50 (Bifidobacterium breve) of 0.5 µg/mL (≈ 0.345 µM) and an MIC90 (Bifidobacterium breve) of 4 µg/mL (≈ 2.76 µM). The MIC50 (Anaerococcus tetradius) was 0.5 µg/mL (≈ 0.345 µM), the MIC90 (Anaerococcus tetradius) was 1 µg/mL (≈ 0.69 µM) and the MIC50 (Clostridium hathewayi) was 1 µg/mL (≈ 0.69 µM). For the same molecule, the MIC90 (Clostridium hathewayi) was 1 µg/mL (≈ 0.69 µM), the MIC50 (Ruminococcus gnavus) was 0.5 µg/mL (≈ 0.345 µM) and the MIC90 (Ruminococcus gnavus) was 1 µg/mL (≈ 0.69 µM). The MIC50 (Clostridium disporicum) was 1 µg/mL (≈ 0.69 µM), the MIC90 (Clostridium disporicum) was 4 µg/mL (≈ 2.76 µM) and the MIC50 (Clostridium bolteae) was 2 µg/mL (≈ 1.38 µM). For the same molecule, the MIC90 (Clostridium bolteae) was 2 µg/mL (≈ 1.38 µM), the MIC50 [4] was 0.5 µg/mL (≈ 0.345 µM) and the MIC90 [4] was 4 µg/mL (≈ 2.76 µM). For the same molecule, the MIC50 [5] was 1 µg/mL (≈ 0.69 µM), the MIC90 [5] was 4 µg/mL (≈ 2.76 µM) and the MIC50 (Prevotella disiens) was 32 µg/mL (≈ 22.1 µM). The MIC90 (Prevotella disiens) was over 128 µg/mL, the MIC50 (Ruminococcus torques) was 0.5 µg/mL (≈ 0.345 µM) and the MIC90 (Ruminococcus torques) was 1 µg/mL (≈ 0.69 µM). For the same molecule, the MIC50 (Parabacteroides merdae) was 128 µg/mL (≈ 88.3 µM), the MIC90 (Parabacteroides merdae) was 128 µg/mL (≈ 88.3 µM) and the MIC50 [6] was 2 µg/mL (≈ 1.38 µM). It also gave an MIC90 [6] of 2 µg/mL (≈ 1.38 µM), an MIC50 (Prevotella denticola) of 32 µg/mL (≈ 22.1 µM) and an MIC90 (Prevotella denticola) of over 128 µg/mL. It also gave an MIC50 (Prevotella oris) of 32 µg/mL (≈ 22.1 µM), an MIC90 (Prevotella oris) of over 128 µg/mL and an MIC50 (Clostridium bartlettii) of 1 µg/mL (≈ 0.69 µM). It also gave an MIC90 (Clostridium bartlettii) of 4 µg/mL (≈ 2.76 µM), an MIC50 (Clostridium glycolicum) of 1 µg/mL (≈ 0.69 µM) and an MIC90 (Clostridium glycolicum) of 4 µg/mL (≈ 2.76 µM). The MIC50 [7] was 0.5 µg/mL (≈ 0.345 µM), the MIC90 [7] was 1 µg/mL (≈ 0.69 µM) and the MIC [8] was over 128 µg/mL. For the same molecule, the MIC50 [8] was over 128 µg/mL, the MIC90 [8] was over 128 µg/mL and the MIC50 (Bacteroides fragilis) was 64 µg/mL (≈ 44.2 µM). It also gave an MIC90 (Bacteroides fragilis) of 64 µg/mL (≈ 44.2 µM), an MIC50 (Ruminococcus albus) of 0.5 µg/mL (≈ 0.345 µM) and an MIC90 (Ruminococcus albus) of 1 µg/mL (≈ 0.69 µM). For the same molecule, the MIC50 (Ruminococcus lactaris) was 0.5 µg/mL (≈ 0.345 µM), the MIC90 (Ruminococcus lactaris) was 1 µg/mL (≈ 0.69 µM) and the MIC50 [9] was 1 µg/mL (≈ 0.69 µM). The MIC90 [9] was 4 µg/mL (≈ 2.76 µM), the MIC50 (Prevotella bivia) was 32 µg/mL (≈ 22.1 µM) and the MIC90 (Prevotella bivia) was over 128 µg/mL. For the same molecule, the MIC50 [10] was 0.5 µg/mL (≈ 0.345 µM), the MIC90 [10] was 4 µg/mL (≈ 2.76 µM) and the MIC50 [11] was 0.5 µg/mL (≈ 0.345 µM). For the same molecule, the MIC90 [11] was 4 µg/mL (≈ 2.76 µM), the MIC50 [12] was 0.5 µg/mL (≈ 0.345 µM) and the MIC90 [12] was 4 µg/mL (≈ 2.76 µM). For the same molecule, the MIC50 (Odoribacter splanchnicus) was 128 µg/mL (≈ 88.3 µM), the MIC90 (Odoribacter splanchnicus) was over 128 µg/mL and the MIC50 [13] was 128 µg/mL (≈ 88.3 µM). For the same molecule, the MIC90 [13] was 128 µg/mL (≈ 88.3 µM), the MIC50 (Clostridium tertium) was 1 µg/mL (≈ 0.69 µM) and the MIC90 (Clostridium tertium) was 4 µg/mL (≈ 2.76 µM). It also gave an MIC50 [14] of 2 µg/mL (≈ 1.38 µM), an MIC90 [14] of 2 µg/mL (≈ 1.38 µM) and an MIC50 (Coriobacterium) of 0.5 µg/mL (≈ 0.345 µM). The MIC90 (Coriobacterium) was 4 µg/mL (≈ 2.76 µM), the MIC50 (Prevotella buccae) was 32 µg/mL (≈ 22.1 µM) and the MIC90 (Prevotella buccae) was over 128 µg/mL. The MIC50 [15] was 1 µg/mL (≈ 0.69 µM), the MIC90 [15] was 4 µg/mL (≈ 2.76 µM) and the MIC50 [16] was 0.5 µg/mL (≈ 0.345 µM). It also gave an MIC90 [16] of 1 µg/mL (≈ 0.69 µM), an MIC50 (Parvimonas micra) of 0.5 µg/mL (≈ 0.345 µM) and an MIC90 (Parvimonas micra) of 1 µg/mL (≈ 0.69 µM).
